Measured values published in US20070105875A1, “Fungicidal mixtures” (priority 2004, published 2007).

Test system: Corticium sasakii (syn. Rhizoctonia solani)
Test: Activity against sheath blight on rice caused by Corticium sasakii (protective spray test on potted rice plants)
Assay type: in vivo
Conditions: individual active compound, rice cultivar Tai-Nong 67, evaluation after 11 days, untreated control 90% infection
Experimental: The active compounds, separately or jointly, were prepared as a stock solution with 0.25% by weight of active compound in acetone or DMSO. 1% by weight of the emulsifier Uniperol® EL (wetting agent having emulsifying and dispersing action based on ethoxylated alkylphenols) was added to this solution, and the solution was diluted with water to the desired concentration.
Activity Against Sheath Blight on Rice Caused by Corticium sasakii (syn. Rhizoctonia solani)
Pots of rice plants of the cultivar “Tai-Nong 67” were sprayed to runoff point with an aqeuous suspension having the concentration of active compound stated below. The next day, oat grains infected with Corticium sasakii were placed into the pots (in each case 5 grains per pot). The plants were then placed in a chamber at 26° C. and maximum atmospheric humidity. After 11 days, the sheath blight on the untreated but infected control plants had developed to such an extent that the infection could be determined visually in %.
Evaluation is carried out by determining the infected leaf areas in percent. These percentages were converted into efficacies.
The efficacy (E) is calculated as follows using Abbot's formula: E=(1−α/β)·100 α corresponds to the fungicidal infection of the treated plants in % and β corresponds to the fungicidal infection of the untreated (control) plants in %
An efficacy of 0 means that the infection level of the treated plants corresponds to that of the untreated control plants; an efficacy of 100 means that the treated plants are not infected.
The expected efficacies of the mixtures of active compounds are determined using Colby's formula [R. S. Colby, Weeds 15, 20-22 (1967)] and compared with the observed efficacies.
Colby's Formula: E=x+y−x·y/100 • E expected efficacy, expressed in % of the untreated control, when using the mixture of the active compounds A and B at the concentrations a and b • x efficacy, expressed in % of the untreated control, when using active compound A at the concentration a • y efficacy, expressed in % of the untreated control, when using active compound B at the concentration b

## CC1CCN(c2c(-c3c(F)cc(F)cc3F)c(Cl)nc3ncnn23)CC1 [I, 5-chloro-7-(4-methylpiperidin-1-yl)-6-(2,4,6-trifluorophenyl)-[1,2,4]triazolo[1,5-a]pyrimidine]
1 ppm in the spray liquor
  Efficacy in % of the untreated control: 33%

## CO/N=C(/C(=O)OC)c1ccccc1COc1ccccc1C [II (kresoxim-methyl), methyl methoxyimino-(2-o-tolyloxymethylphenyl)acetate]
1 ppm in the spray liquor
  Efficacy in % of the untreated control: 0%
4 ppm in the spray liquor
  Efficacy in % of the untreated control: 0%

## C[C@H](Nc1c(-c2c(F)cc(F)cc2F)c(Cl)nc2ncnn12)C(F)(F)F [B]
1 ppm in the spray liquor
  Efficacy in % of the untreated control: 0%

## CC1CCN(c2c(-c3c(F)cccc3Cl)c(Cl)nc3ncnn23)CC1 [A]
1 ppm in the spray liquor
  Efficacy in % of the untreated control: 0%
